Results published in patent US20240158446A1, “CYCLIC COMPOUND HAVING SELECTIVE INHIBITORY ACTION ON KRAS OVER HRAS AND NRAS” (CHUGAI SEIYAKU KABUSHIKI KAISHA, priority 2021, published 2024).

Key:
[1] = test system: human lung cancer strain NCI-H441;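 also: cell proliferation inhibition after four days measured by CellTiter-Glo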
[2] = molecular target: GDP-bound HRAS wild-type protein (Homo sapiens, UniProt P01112); assay: Binding to HRAS by surface plasmon resonance (SPR), Single Cycle Kinetics; conditions: SPR, GDP-bound HRAS wild-type protein vs GDP-bound KRAS wild-type protein
Chain of GDP-bound HRAS wild-type protein (P01112 whole entry): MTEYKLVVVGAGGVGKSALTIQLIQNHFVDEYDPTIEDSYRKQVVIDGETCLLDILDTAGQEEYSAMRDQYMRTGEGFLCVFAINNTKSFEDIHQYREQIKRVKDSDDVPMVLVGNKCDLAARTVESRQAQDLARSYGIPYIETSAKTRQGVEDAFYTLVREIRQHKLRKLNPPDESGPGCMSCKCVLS

[3] = molecular target: GDP-bound KRAS wild-type protein (Homo sapiens, UniProt P01116); assay: Binding to KRAS by surface plasmon resonance (SPR), Single Cycle Kinetics; conditions: SPR, Single Cycle Kinetics, GDP-bound KRAS wild-type protein; read-out: KRAS KD
Chain of GDP-bound KRAS wild-type protein (P01116 whole entry): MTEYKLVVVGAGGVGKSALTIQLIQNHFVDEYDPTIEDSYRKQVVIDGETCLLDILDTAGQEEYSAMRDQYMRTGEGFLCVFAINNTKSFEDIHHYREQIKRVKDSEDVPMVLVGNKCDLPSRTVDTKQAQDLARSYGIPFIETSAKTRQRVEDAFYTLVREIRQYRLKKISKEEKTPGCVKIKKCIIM

[4] = molecular target: GDP-bound NRAS wild-type protein (Homo sapiens, UniProt P01111); assay: Binding to NRAS by surface plasmon resonance (SPR), Single Cycle Kinetics; conditions: SPR, GDP-bound NRAS wild-type protein vs GDP-bound KRAS wild-type protein
Chain of GDP-bound NRAS wild-type protein (P01111 whole entry): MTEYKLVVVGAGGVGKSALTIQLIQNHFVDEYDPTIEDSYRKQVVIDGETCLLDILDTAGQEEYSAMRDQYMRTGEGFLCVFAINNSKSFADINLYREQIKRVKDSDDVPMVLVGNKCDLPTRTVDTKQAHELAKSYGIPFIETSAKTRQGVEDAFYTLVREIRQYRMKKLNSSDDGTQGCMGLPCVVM

Row | Structure (SMILES) | IC50 [1] [nM] | HRAS/KRAS (ratio of KD value for HRAS to KD value for KRAS) [2] | Kd [3] [nM] | NRAS/KRAS (ratio of KD value for NRAS to KD value for KRAS) [4]
1 | CCO[C@H](C)[C@@H]1NC(=O)[C@H](CC(C)C)N(C)C(=O)C[C@@H](C(=O)N(C)CC)N(C)C(=O)[C@H](C2CCCC2)N(C)C(=O)C2(CC(C)(C)C2)NC(=O)[C@@H]2C[C@H](C)CN2C(=O)[C@H](CCc2ccc(C(F)(F)F)c(OC)c2)NC(=O)CN(C)C(=O)[C@H](Cc2ccc(C)cc2)N2CC/C=C\C[C@@H](C2=O)N(C)C(=O)CN(C)C1=O [PP2413] | 115 | A (a compound having 10 or more and less than 20 is denoted as A) | 0.25 | A (a compound having 10 or more and less than 20 is denoted as A)
2 | CCO[C@H](C)[C@@H]1NC(=O)[C@H](CC(C)C)N(C)C(=O)C[C@@H](C(=O)N(C)CC)N(C)C(=O)[C@H](C2CCCC2)N(C)C(=O)C2(CC(C)(C)C2)NC(=O)[C@@H]2C[C@H](C)CN2C(=O)[C@H](CCc2cc(F)c(C(F)(F)F)c(F)c2)NC(=O)CN(C)C(=O)[C@H](Cc2ccc(C)cc2)N2CC/C=C\C[C@@H](C2=O)N(C)C(=O)CN(C)C1=O [PP2414] | 9.8 | A (a compound having 10 or more and less than 20 is denoted as A) | 0.33 | A (a compound having 10 or more and less than 20 is denoted as A)
3 | CCCO[C@H](C)[C@@H]1NC(=O)[C@H](CC(C)C)N(C)C(=O)C[C@@H](C(=O)N(C)C)N(C)C(=O)[C@H](C2CCCC2)N(C)C(=O)C2(CC(C)(C)C2)NC(=O)[C@@H]2C[C@H](C)CN2C(=O)[C@H](CCc2ccc(C(F)(F)F)c(OC)c2)NC(=O)CN(C)C(=O)[C@H](Cc2ccc(C)cc2)N2CC/C=C\C[C@@H](C2=O)N(C)C(=O)CN(C)C1=O [PP2415] | 10.3 | A (a compound having 10 or more and less than 20 is denoted as A) | 0.093 | AA (a compound having 20 or more is denoted as AA)
4 | CCCO[C@H](C)[C@@H]1NC(=O)[C@H](CC(C)C)N(C)C(=O)C[C@@H](C(=O)N(C)CC)N(C)C(=O)[C@H](C2CCCC2)N(C)C(=O)C2(CC(C)(C)C2)NC(=O)[C@@H]2C[C@H](C)CN2C(=O)[C@H](CCc2ccc(C(F)(F)F)c(OC)c2)NC(=O)CN(C)C(=O)[C@H](Cc2ccc(C)cc2)N2CC/C=C\C[C@@H](C2=O)N(C)C(=O)CN(C)C1=O [PP2416] | 33.1 | B (a compound having 3 or more and less than 10 is denoted as B) | 0.29 | A (a compound having 10 or more and less than 20 is denoted as A)
5 | CCCO[C@H](C)[C@@H]1NC(=O)[C@H](CC(C)C)N(C)C(=O)C[C@@H](C(=O)N(C)CC)N(C)C(=O)[C@H](C2CCCC2)N(C)C(=O)C2(CC(C)(C)C2)NC(=O)[C@@H]2C[C@H](C)CN2C(=O)[C@H](CCc2cc(F)c(C(F)(F)F)c(F)c2)NC(=O)CN(C)C(=O)[C@H](Cc2ccc(C)cc2)N2CC/C=C\C[C@@H](C2=O)N(C)C(=O)CN(C)C1=O [PP2417] | 15.9 | A (a compound having 10 or more and less than 20 is denoted as A) | 0.3 | A (a compound having 10 or more and less than 20 is denoted as A)
6 | CCO[C@H](C)[C@@H]1NC(=O)[C@H](CC(C)C)N(C)C(=O)C[C@@H](C(=O)N(C)C)N(C)C(=O)[C@H](C2CCCC2)N(C)C(=O)C2(CC(C)(C)C2)NC(=O)[C@@H]2C[C@H](C)CN2C(=O)[C@H](CCc2ccc(C(F)(F)F)c(OC)c2)NC(=O)CN(C)C(=O)[C@H](Cc2ccc(C)cc2)N2CC/C=C\C[C@@H](C2=O)N(C)C(=O)[C@@H]2CCCN2C1=O [PP2418] | 132 | B (a compound having 3 or more and less than 10 is denoted as B) | 0.97 | A (a compound having 10 or more and less than 20 is denoted as A)
7 | CCO[C@H](C)[C@@H]1NC(=O)[C@H](CC(C)C)N(C)C(=O)C[C@@H](C(=O)N(C)CC)N(C)C(=O)[C@H](C2CCCC2)N(C)C(=O)C2(CC(C)(C)C2)NC(=O)[C@@H]2C[C@H](C)CN2C(=O)[C@H](CCc2ccc(C(F)(F)F)c(OC)c2)NC(=O)CN(C)C(=O)[C@H](Cc2ccc(C)cc2)N2CC/C=C\C[C@@H](C2=O)N(C)C(=O)[C@@H]2CCCN2C1=O [PP2419] | 125 | A (a compound having 10 or more and less than 20 is denoted as A) | 2 | A (a compound having 10 or more and less than 20 is denoted as A)
8 | CCOC[C@H]1C(=O)N[C@@H]([C@@H](C)OCC)C(=O)N(C)CC(=O)N(C)[C@H]2C/C=C\CCN(C2=O)[C@@H](Cc2ccc(C)cc2)C(=O)N(C)CC(=O)N[C@@H](CCc2cc(F)c(C(F)(F)F)c(F)c2)C(=O)N2C[C@@H](C)C[C@H]2C(=O)NC2(CC(C)(C)C2)C(=O)N(C)[C@@H](C2CCCC2)C(=O)N(C)[C@H](C(=O)N(C)CC)CC(=O)N1C [PP2422] | 117 | A (a compound having 10 or more and less than 20 is denoted as A) | 0.46 | A (a compound having 10 or more and less than 20 is denoted as A)
9 | CCCOC[C@H]1C(=O)N[C@@H]([C@@H](C)OCC)C(=O)N(C)CC(=O)N(C)[C@H]2C/C=C\CCN(C2=O)[C@@H](Cc2ccc(C)cc2)C(=O)N(C)CC(=O)N[C@@H](CCc2cc(F)c(C(F)(F)F)c(F)c2)C(=O)N2C[C@@H](C)C[C@H]2C(=O)NC2(CC(C)(C)C2)C(=O)N(C)[C@@H](C2CCCC2)C(=O)N(C)[C@H](C(=O)N(C)CC)CC(=O)N1C [PP2424] | 50.9 | A (a compound having 10 or more and less than 20 is denoted as A) | 0.37 | A (a compound having 10 or more and less than 20 is denoted as A)
10 | CCCO[C@H](C)[C@@H]1NC(=O)[C@H](COCC)N(C)C(=O)C[C@@H](C(=O)N(C)CC)N(C)C(=O)[C@H](C2CCCC2)N(C)C(=O)C2(CC(C)(C)C2)NC(=O)[C@@H]2C[C@H](C)CN2C(=O)[C@H](CCc2ccc(C(F)(F)F)c(OC)c2)NC(=O)CN(C)C(=O)[C@H](Cc2ccc(C)cc2)N2CC/C=C\C[C@@H](C2=O)N(C)C(=O)CN(C)C1=O [PP2425] | 51.7 | A (a compound having 10 or more and less than 20 is denoted as A) | 0.23 | AA (a compound having 20 or more is denoted as AA)
11 | CCCO[C@H](C)[C@@H]1NC(=O)[C@H](COCC)N(C)C(=O)C[C@@H](C(=O)N(C)CC)N(C)C(=O)[C@H](C2CCCC2)N(C)C(=O)C2(CC(C)(C)C2)NC(=O)[C@@H]2C[C@H](C)CN2C(=O)[C@H](CCc2cc(F)c(C(F)(F)F)c(F)c2)NC(=O)CN(C)C(=O)[C@H](Cc2ccc(C)cc2)N2CC/C=C\C[C@@H](C2=O)N(C)C(=O)CN(C)C1=O [PP2426] | 48 | A (a compound having 10 or more and less than 20 is denoted as A) | 0.31 | AA (a compound having 20 or more is denoted as AA)
12 | CCOC[C@H]1C(=O)N[C@@H]([C@@H](C)CC)C(=O)N2CCC[C@H]2C(=O)N(C)[C@H]2C/C=C\CCN(C2=O)[C@@H](Cc2ccc(C)cc2)C(=O)N(C)CC(=O)N[C@@H](CCc2ccc(C(F)(F)F)c(OC)c2)C(=O)N2C[C@@H](C)C[C@H]2C(=O)NC2(CC(C)(C)C2)C(=O)N(C)[C@@H](C2CCCC2)C(=O)N(C)[C@H](C(=O)N(C)CC)CC(=O)N1C [PP2427] | 36.6 | A (a compound having 10 or more and less than 20 is denoted as A) | 0.7 | AA (a compound having 20 or more is denoted as AA)
13 | CCOC[C@H]1C(=O)N[C@@H]([C@@H](C)CC)C(=O)N2CCC[C@H]2C(=O)N(C)[C@H]2C/C=C\CCN(C2=O)[C@@H](Cc2ccc(C)cc2)C(=O)N(C)CC(=O)N[C@@H](CCc2cc(F)c(C(F)(F)F)c(F)c2)C(=O)N2C[C@H](OCC)C[C@H]2C(=O)NC2(CC(C)(C)C2)C(=O)N(C)[C@@H](C2CCCC2)C(=O)N(C)[C@H](C(=O)N(C)CC)CC(=O)N1C [PP2428] | 4.8 | A (a compound having 10 or more and less than 20 is denoted as A) | 0.62 | A (a compound having 10 or more and less than 20 is denoted as A)
14 | CCCOC[C@H]1C(=O)N[C@@H]([C@@H](C)CC)C(=O)N2CCC[C@H]2C(=O)N(C)[C@H]2C/C=C\CCN(C2=O)[C@@H](Cc2ccc(C)cc2)C(=O)N(C)CC(=O)N[C@@H](CCc2ccc(C(F)(F)F)c(OC)c2)C(=O)N2C[C@@H](C)C[C@H]2C(=O)NC2(CC(C)(C)C2)C(=O)N(C)[C@@H](C2CCCC2)C(=O)N(C)[C@H](C(=O)N(C)CC)CC(=O)N1C [PP2429] | 8.3 | B (a compound having 3 or more and less than 10 is denoted as B) | 4.5 | A (a compound having 10 or more and less than 20 is denoted as A)
